Results from patent publication US10501575B2, “Biomimetic fluoroscopic films” (THE BOARD OF REGENTS OF THE UNIVERSITY OF TEXAS SYSTEM, priority 2015, dated 2019).

How the values were obtained:
[1] = tested on: IL-1β; experiment: Anti-inflammatory effect, IL-1β ELISA in LPS stimulated RAW 264.7 cells; type: cell-based, mouse; conditions: for Cytokine Concentration IL-1β: LPS, 24 h
Excerpt: (§1) Therapeutic effect. […] PTNP concentrations were compared to free dexamethasone in media, which simulates systemic delivery. The experimental design included the expected concentrations of dexamethasone released from PTNP groups.

[2] = tested on: TNF-α; experiment: Anti-inflammatory effect, TNF-α ELISA in LPS stimulated RAW 264.7 cells; type: cell-based, mouse; conditions: for Cytokine Concentration TNF-α: LPS, 24 h
Excerpt: as §1

## C[C@@H]1C[C@H]2[C@@H]3CCC4=CC(=O)C=C[C@]4(C)[C@@]3(F)[C@@H](O)C[C@]2(C)[C@@]1(O)C(=O)CO [Free DEX, dexamethasone]
[1]; ELISA
  concentration required to maintain IL-1β control concentration levels in the presence of stimuli: 0.23 mg/mL
[1]; Free DEX 0.10 mg/mL
  Cytokine Concentration IL-1β: 1009 ± 7 pg/mL
[1]; Free DEX 0.50 mg/mL
  Cytokine Concentration IL-1β: 759 ± 7 pg/mL
[1]; Free DEX 1.00 mg/mL
  Cytokine Concentration IL-1β: 491 ± 2 pg/mL
[1]; Free DEX 2.00 mg/mL
  Cytokine Concentration IL-1β: 489 ± 4 pg/mL
[2]; ELISA
  concentration required to maintain TNF-α control concentration levels in the presence of stimuli: 0.23 mg/mL
[2]; Free DEX 0.10 mg/mL
  Cytokine Concentration TNF-α: 78 ± 3 pg/mL
[2]; Free DEX 0.50 mg/mL
  Cytokine Concentration TNF-α: 66 ± 3 pg/mL
[2]; Free DEX 1.00 mg/mL
  Cytokine Concentration TNF-α: 50 ± 3 pg/mL
[2]; Free DEX 2.00 mg/mL
  Cytokine Concentration TNF-α: 35 ± 6 pg/mL
[2]; free dexamethasone 0.10-0.50 mg/mL
  TNF-α versus control: lowered TNF-α but not enough to be comparable to the control
[2]; free dexamethasone in media 1 and 2 mg/mL
  TNF-α concentrations versus control: lowered TNF-α concentrations to control levels
